Test results taken from ChEMBL document CHEMBL3045977, “Antidiabetic and antioxidant activity of hydroxycinnamic acids from Calamintha Officinalis Moench” (2012).

Columns and labels:
Assay type in all cases: functional
Rattus norvegicus [1] = assay: Antidiabetic activity in alloxan-induced diabetic Rattus norvegicus albino Wistar (rat) model assessed as reduction in total cholesterol level at 10 mg/kg, po administered for 14 days measured on day 14 (reference value: 131.2 +/- 0.48 mg/dl)
Rattus norvegicus [2] = assay: Antidiabetic activity in alloxan-induced diabetic Rattus norvegicus albino Wistar (rat) model assessed as reduction in blood glucose level at 10 mg/kg, po administered for 14 days measured on day 1 (reference value: 242.2 +/- 0.71 mg/dl)
Rattus norvegicus [3] = assay: Antidiabetic activity in alloxan-induced diabetic Rattus norvegicus albino Wistar (rat) model assessed as reduction in triglyceride level at 10 mg/kg, po administered for 14 days measured on day 14 (reference value: 210.8 +/- 1.25 mg/dl)
Rattus norvegicus [4] = assay: Antidiabetic activity in alloxan-induced diabetic Rattus norvegicus albino Wistar (rat) model assessed as reduction in triglyceride level at 10 mg/kg, po administered for 14 days measured on day 1 (reference value: 158.9 +/- 1.23 mg/dl)
Rattus norvegicus [5] = assay: Antidiabetic activity in alloxan-induced diabetic Rattus norvegicus albino Wistar (rat) model assessed as reduction in blood glucose level at 10 mg/kg, po administered for 14 days measured on day 14 (reference value: 248.6 +/- 1.20 mg/dl)
Rattus norvegicus [6] = assay: Antidiabetic activity in alloxan-induced diabetic Rattus norvegicus albino Wistar (rat) model assessed as reduction in HDL level at 10 mg/kg, po administered for 14 days measured on day 1 (reference value: 40.1 +/- 2.11 mg/dl)
Rattus norvegicus [7] = assay: Antidiabetic activity in alloxan-induced diabetic Rattus norvegicus albino Wistar (rat) model assessed as reduction in HDL level at 10 mg/kg, po administered for 14 days measured on day 14 (reference value: 36.4 +/- 1.05 mg/dl)
Rattus norvegicus [8] = assay: Antidiabetic activity in alloxan-induced diabetic Rattus norvegicus albino Wistar (rat) model assessed as change in body weight at 10 mg/kg, po administered for 14 days measured on day 14 (reference value: 190.6 +/-1.78 g)
Rattus norvegicus [9] = assay: Antidiabetic activity in alloxan-induced diabetic Rattus norvegicus albino Wistar (rat) model assessed as reduction in total cholesterol level at 10 mg/kg, po administered for 14 days measured on day 1 (reference value: 98.6 +/- 0.51 mg/dl)
Rattus norvegicus [10] = assay: Antidiabetic activity in alloxan-induced diabetic Rattus norvegicus albino Wistar (rat) model assessed as reduction in LDL level at 10 mg/kg, po administered for 14 days measured on day 14 (reference value: 68.2 +/- 2.10 mg/dl)
Rattus norvegicus [11] = assay: Antidiabetic activity in alloxan-induced diabetic Rattus norvegicus albino Wistar (rat) model assessed as change in body weight at 10 mg/kg, po administered for 14 days measured on day 1 (reference value: 205.4 +/-2.68 g)
Rattus norvegicus [12] = assay: Antidiabetic activity in alloxan-induced diabetic Rattus norvegicus albino Wistar (rat) model assessed as reduction in LDL level at 10 mg/kg, po administered for 14 days measured on day 1 (reference value: 52.4 +/- 2.32 mg/dl)
Rattus norvegicus [13] = assay: Antidiabetic activity in alloxan-induced diabetic Rattus norvegicus albino Wistar (rat) model assessed as TBRAS level per gram of liver tissue at 10 mg/kg, po administered for 14 days measured after 14 days (reference value: 0.72 +/-0.12 uM/g)
Rattus norvegicus [14] = assay: Antidiabetic activity in alloxan-induced diabetic Rattus norvegicus albino Wistar (rat) model assessed as reduction in VLDL level at 10 mg/kg, po administered for 14 days measured on day 14 (reference value: 29.9 +/- 0.83 mg/dl)
Rattus norvegicus [15] = assay: Antidiabetic activity in alloxan-induced diabetic Rattus norvegicus albino Wistar (rat) model assessed as reduction in VLDL level at 10 mg/kg, po administered for 14 days measured on day 1 (reference value: 14.4 +/- 1.04 mg/dl)

In the case of `COc1ccc(Cl)cc1C(=O)NCCc1ccc(S(=O)(=O)NC(=O)NC2CCCCC2)cc1` [GLYBURIDE], the Activity (Rattus norvegicus [1]) was 58.6 mg/dL, the Activity (Rattus norvegicus [2]) was 240 mg/dL and the Activity (Rattus norvegicus [3]) was 102.5 mg/dL. It also gave an Activity (Rattus norvegicus [4]) of 161.6 mg/dL, an Activity (Rattus norvegicus [5]) of 115.1 mg/dL and an Activity (Rattus norvegicus [6]) of 39.7 mg/dL. The Activity (Rattus norvegicus [7]) was 45.7 mg/dL, the Activity (Rattus norvegicus [8]) was 250.5 g and the Activity (Rattus norvegicus [9]) was 98.1 mg/dL. It also gave an Activity (Rattus norvegicus [10]) of 36.4 mg/dL, an Activity (Rattus norvegicus [11]) of 207.6 g and an Activity (Rattus norvegicus [12]) of 50 mg/dL. For the same compound, the Activity (Rattus norvegicus [13]) was 0.45 µM, the Activity (Rattus norvegicus [14]) was 20.1 mg/dL and the Activity (Rattus norvegicus [15]) was 14 mg/dL.

`O=C(O)/C=C/c1ccc(O)c(O)c1` [CAFFEIC ACID] was tested, and the Activity (Rattus norvegicus [1]) was 60.6 mg/dL, the Activity (Rattus norvegicus [2]) was 239 mg/dL and the Activity (Rattus norvegicus [3]) was 103.2 mg/dL. For the same compound, the Activity (Rattus norvegicus [4]) was 160.4 mg/dL, the Activity (Rattus norvegicus [5]) was 105.4 mg/dL and the Activity (Rattus norvegicus [6]) was 38.2 mg/dL. For the same compound, the Activity (Rattus norvegicus [7]) was 41.4 mg/dL, the Activity (Rattus norvegicus [8]) was 246 g and the Activity (Rattus norvegicus [9]) was 101.2 mg/dL. For the same compound, the Activity (Rattus norvegicus [10]) was 41 mg/dL, the Activity (Rattus norvegicus [11]) was 209.3 g and the Activity (Rattus norvegicus [12]) was 53.7 mg/dL. It also gave an Activity (Rattus norvegicus [13]) of 0.56 µM, an Activity (Rattus norvegicus [14]) of 20.9 mg/dL and an Activity (Rattus norvegicus [15]) of 15 mg/dL.

Compound `O=C(/C=C/c1ccc(O)c(O)c1)O[C@H](Cc1ccc(O)c(O)c1)C(=O)O` [ROSMARINIC ACID] has an Activity (Rattus norvegicus [1]) of 57.2 mg/dL, an Activity (Rattus norvegicus [2]) of 244.1 mg/dL and an Activity (Rattus norvegicus [3]) of 100.5 mg/dL. It also gave an Activity (Rattus norvegicus [4]) of 157.6 mg/dL, an Activity (Rattus norvegicus [5]) of 97.3 mg/dL and an Activity (Rattus norvegicus [6]) of 41.2 mg/dL. For the same compound, the Activity (Rattus norvegicus [7]) was 50.2 mg/dL, the Activity (Rattus norvegicus [8]) was 249.5 g and the Activity (Rattus norvegicus [9]) was 100.1 mg/dL. The Activity (Rattus norvegicus [10]) was 42.3 mg/dL, the Activity (Rattus norvegicus [11]) was 206.8 g and the Activity (Rattus norvegicus [12]) was 51.3 mg/dL. The Activity (Rattus norvegicus [13]) was 0.5 µM, the Activity (Rattus norvegicus [14]) was 21.7 mg/dL and the Activity (Rattus norvegicus [15]) was 14.2 mg/dL.
